Source: ChEMBL document CHEMBL4145553, “Design, synthesis, and biological evaluation of novel amide and hydrazide based thioether analogs targeting Histone deacteylase (HDAC) enzymes” (Eur J Med Chem, 2018)
Calls of active or inactive are those of the source. No cut-off for these calls is given here.

Key:
CCRF-CEM = experiment: Growth inhibition of human CCRF-CEM cells assessed as cell growth at 10^-8 M incubated for 48 hrs by sulforhodamine B assay relative to control; assay type: functional; details: read-out: Activity
NCI-H460 = experiment: Growth inhibition of human NCI-H460 cells assessed as cell growth at 10^-8 M incubated for 48 hrs by sulforhodamine B assay relative to control; assay type: functional; details: NCI-H460, 48 h, read-out: Activity
HCT-15 = experiment: Growth inhibition of human HCT15 cells assessed as cell growth at 10^-8 M incubated for 48 hrs by sulforhodamine B assay relative to control; assay type: functional; details: HCT-15, 48 h, read-out: Activity
KM12 [1] = experiment: Growth inhibition of human KM12 cells assessed as cell growth at 10^-8 M incubated for 48 hrs by sulforhodamine B assay relative to control; assay type: functional; details: KM12, 48 h, read-out: Activity
SF-268 = experiment: Growth inhibition of human SF268 cells assessed as cell growth at 10^-8 M incubated for 48 hrs by sulforhodamine B assay relative to control; assay type: functional; details: SF-268, 48 h, read-out: Activity
NCI-H322M [2] = experiment: Growth inhibition of human NCI-H322M cells assessed as cell growth at 10^-7 M incubated for 48 hrs by sulforhodamine B assay relative to control; assay type: functional; details: read-out: Activity
KM12 [3] = experiment: Growth inhibition of human KM12 cells assessed as cell growth at 10^-7 M incubated for 48 hrs by sulforhodamine B assay relative to control; assay type: functional; details: KM12, 48 h, read-out: Activity
Malme-3M [4] = experiment: Growth inhibition of human MALME-3M cells assessed as cell growth at 10^-7 M incubated for 48 hrs by sulforhodamine B assay relative to control; assay type: functional; details: read-out: Activity
A498 = experiment: Growth inhibition of human A498 cells assessed as cell growth at 10^-7 M incubated for 48 hrs by sulforhodamine B assay relative to control; assay type: functional; details: A498, 48 h, read-out: Activity
ACHN = experiment: Growth inhibition of human ACHN cells assessed as cell growth at 10^-7 M incubated for 48 hrs by sulforhodamine B assay relative to control; assay type: functional; details: read-out: Activity
HL-60(TB) = experiment: Growth inhibition of human HL-60(TB) cells assessed as cell growth at 10^-6 M incubated for 48 hrs by sulforhodamine B assay relative to control; assay type: functional; details: HL-60, 48 h, read-out: Activity
MOLT-4 = experiment: Growth inhibition of human MOLT4 cells assessed as cell growth at 10^-6 M incubated for 48 hrs by sulforhodamine B assay relative to control; assay type: functional; details: MOLT-4, 48 h, read-out: Activity
NCI-H23 = experiment: Growth inhibition of human NCI-H23 cells assessed as cell growth at 10^-6 M incubated for 48 hrs by sulforhodamine B assay relative to control; assay type: functional; details: NCI-H23, 48 h, read-out: Activity
SF-539 = experiment: Growth inhibition of human SF539 cells assessed as cell growth at 10^-6 M incubated for 48 hrs by sulforhodamine B assay relative to control; assay type: functional; details: SF-539, 48 h, read-out: Activity
RXF 393 = experiment: Growth inhibition of human RXF393 cells assessed as cell growth at 10^-6 M incubated for 48 hrs by sulforhodamine B assay relative to control; assay type: functional; details: RXF 393, 48 h, read-out: Activity
TK-10 = experiment: Growth inhibition of human TK10 cells assessed as cell growth at 10^-6 M incubated for 48 hrs by sulforhodamine B assay relative to control; assay type: functional; details: TK-10, 48 h, read-out: Activity
SR = experiment: Growth inhibition of human SR cells assessed as cell growth at 10^-5 M incubated for 48 hrs by sulforhodamine B assay relative to control; assay type: functional; details: read-out: Activity
Malme-3M [5] = experiment: Growth inhibition of human MALME-3M cells assessed as cell growth at 10^-5 M incubated for 48 hrs by sulforhodamine B assay relative to control; assay type: functional; details: read-out: Activity
UO-31 = experiment: Growth inhibition of human UO31 cells assessed as cell growth at 10^-5 M incubated for 48 hrs by sulforhodamine B assay relative to control; assay type: functional; details: UO-31, 48 h, read-out: Activity
MCF7 = experiment: Growth inhibition of human MCF7 cells assessed as cell growth at 10^-5 M incubated for 48 hrs by sulforhodamine B assay relative to control; assay type: functional; details: MCF7, 48 h, read-out: Activity
Hs-578T = experiment: Growth inhibition of human Hs 578T cells assessed as cell growth at 10^-5 M incubated for 48 hrs by sulforhodamine B assay relative to control; assay type: functional; details: read-out: Activity
T47D = experiment: Growth inhibition of human T47D cells assessed as cell growth at 10^-5 M incubated for 48 hrs by sulforhodamine B assay relative to control; assay type: functional; details: read-out: Activity
K562 = experiment: Growth inhibition of human K562 cells assessed as cell growth at 10^-4 M incubated for 48 hrs by sulforhodamine B assay relative to control; assay type: functional; details: K562, 48 h, read-out: Activity
A549 = experiment: Growth inhibition of human A549/ATCC cells assessed as cell growth at 10^-4 M incubated for 48 hrs by sulforhodamine B assay relative to control; assay type: functional; details: A549, 48 h, read-out: Activity
NCI-H322M [6] = experiment: Growth inhibition of human NCI-H322M cells assessed as cell growth at 10^-4 M incubated for 48 hrs by sulforhodamine B assay relative to control; assay type: functional; details: read-out: Activity
UACC-257 [7] = experiment: Growth inhibition of human UACC257 cells assessed as cell growth at 10^-4 M incubated for 48 hrs by sulforhodamine B assay relative to control; assay type: functional; details: UACC-257, 48 h, read-out: Activity
IGROV-1 = experiment: Growth inhibition of human IGROV1 cells assessed as cell growth at 10^-4 M incubated for 48 hrs by sulforhodamine B assay relative to control; assay type: functional; details: IGROV-1, 48 h, read-out: Activity
HCC 2998 = experiment: Growth inhibition of human HCC2998 cells incubated for 48 hrs by sulforhodamine B assay; assay type: functional; details: HCC 2998, 48 h
UACC-257 [8] = experiment: Growth inhibition of human UACC257 cells incubated for 48 hrs by sulforhodamine B assay; assay type: functional; details: UACC-257, 48 h
MDA-MB-435 [9] = experiment: Induction of apoptosis in human MDA-MB-435 cells assessed as live cells by propidium iodide/Annexin V staining based flow cytometry (reference value: 97.4%); assay type: functional
MDA-MB-435 [10] = experiment: Induction of apoptosis in human MDA-MB-435 cells assessed as early apoptotic cells by propidium iodide/Annexin V staining based flow cytometry (reference value: 0.25%); assay type: functional
HL-60 = experiment: Downregulation of HDAC8 mRNA expression in human HL60 cells by qRT-PCR method; assay type: functional, cell-based
MDA-MB-435 [11] = experiment: Downregulation of HDAC8 mRNA expression in human MDA-MB-435 cells by qRT-PCR method; assay type: functional, cell-based
[12] = read-out: LC50 (the source's name)
[13] = read-out: pLC50 (the source's name) (converted)

CCS/C(Nc1ccccc1)=C(\C#N)C(=O)Nc1ccc(OC)cc1
growth at 0.01 µM (CCRF-CEM): 91% | growth at 0.01 µM (NCI-H460): 105% | growth at 0.01 µM (HCT-15): 98% | growth at 0.01 µM (KM12 [1]): 100% | growth at 0.01 µM (SF-268): 101% | growth at 0.1 µM (NCI-H322M [2]): 92% | growth at 0.1 µM (KM12 [3]): 98% | growth at 0.1 µM (Malme-3M [4]): 92% | growth at 0.1 µM (A498): 90% | growth at 0.1 µM (ACHN): 93% | growth at 1 µM (HL-60(TB)): 86% | growth at 1 µM (MOLT-4): 71% | growth at 1 µM (NCI-H23): 85% | growth at 1 µM (SF-539): 87% | growth at 1 µM (RXF 393): 82% | growth at 1 µM (TK-10): 97% | growth at 10 µM (SR): 21% | growth at 10 µM (Malme-3M [5]): 61% | growth at 10 µM (UO-31): 37% | growth at 10 µM (MCF7): 15% | growth at 10 µM (Hs-578T): 28% | growth at 10 µM (T47D): 25% | growth at 100 µM (K562): 10% | growth at 100 µM (A549): 15% | growth at 100 µM (NCI-H322M [6]): 37% | growth at 100 µM (UACC-257 [7]): 37% | growth at 100 µM (IGROV-1): 28% | GI50 (HCC 2998; read-out: GI50): 6.56 µM | CC50 (HCC 2998; [12]): > 100 µM | TGI (HCC 2998; read-out: TGI): > 100 µM | GI50 (HCC 2998; read-out: pGI50 (converted)): 6.61 µM | CC50 (HCC 2998; [13]): > 100 µM | TGI (HCC 2998; read-out: pTGI): > 100 µM | GI50 (UACC-257 [8]; read-out: GI50): 21.2 µM | CC50 (UACC-257 [8]; [12]): > 100 µM | TGI (UACC-257 [8]; read-out: TGI): > 100 µM | GI50 (UACC-257 [8]; read-out: pGI50 (converted)): 21.4 µM | CC50 (UACC-257 [8]; [13]): > 100 µM | TGI (UACC-257 [8]; read-out: pTGI): > 100 µM | Activity (MDA-MB-435 [9]): 85.55% | Activity (MDA-MB-435 [10]): 4.61% | Activity (HL-60): Active | Activity (MDA-MB-435 [11]): Active

CCS/C(Nc1ccccc1)=C(\C#N)C(=O)N/N=C\c1ccc(Cl)cc1Cl
growth at 0.01 µM (CCRF-CEM): 103% | growth at 0.01 µM (NCI-H460): 100% | growth at 0.01 µM (HCT-15): 99% | growth at 0.01 µM (KM12 [1]): 101% | growth at 0.01 µM (SF-268): 94% | growth at 0.1 µM (NCI-H322M [2]): 91% | growth at 0.1 µM (KM12 [3]): 101% | growth at 0.1 µM (Malme-3M [4]): 89% | growth at 0.1 µM (A498): 78% | growth at 0.1 µM (ACHN): 98% | growth at 1 µM (HL-60(TB)): 93% | growth at 1 µM (MOLT-4): 84% | growth at 1 µM (NCI-H23): 90% | growth at 1 µM (SF-539): 90% | growth at 1 µM (RXF 393): 75% | growth at 1 µM (TK-10): 97% | growth at 10 µM (SR): 28% | growth at 10 µM (Malme-3M [5]): 49% | growth at 10 µM (UO-31): 43% | growth at 10 µM (MCF7): 14% | growth at 10 µM (Hs-578T): 18% | growth at 10 µM (T47D): 24% | growth at 100 µM (K562): 7% | growth at 100 µM (A549): 18% | growth at 100 µM (NCI-H322M [6]): 32% | growth at 100 µM (UACC-257 [7]): 35% | growth at 100 µM (IGROV-1): 30% | GI50 (HCC 2998; read-out: GI50): 5.47 µM | CC50 (HCC 2998; [12]): > 100 µM | TGI (HCC 2998; read-out: TGI): > 100 µM | GI50 (HCC 2998; read-out: pGI50 (converted)): 5.5 µM | CC50 (HCC 2998; [13]): > 100 µM | TGI (HCC 2998; read-out: pTGI): > 100 µM | GI50 (UACC-257 [8]; read-out: GI50): 25.7 µM | CC50 (UACC-257 [8]; [12]): > 100 µM | TGI (UACC-257 [8]; read-out: TGI): > 100 µM | GI50 (UACC-257 [8]; read-out: pGI50 (converted)): 25.7 µM | CC50 (UACC-257 [8]; [13]): > 100 µM | TGI (UACC-257 [8]; read-out: pTGI): > 100 µM | Activity (MDA-MB-435 [9]): 91.29% | Activity (MDA-MB-435 [10]): 2.52% | Activity (HL-60): Active | Activity (MDA-MB-435 [11]): Active
